Data: patent US20230113609A1, “SSTR5 ANTAGONISTS” (Kallyope, Inc., priority 2019, published 2023)

Legend:
[1] = Oral bioavailability of the compounds after oral dosing in rat; settings: in vivo, IV 1 mg/kg, PO 5 mg/kg, vehicle 5% DMSO + 30% PEG400 + 65% water
Experimental: Oral bioavailability of the compounds was determined in Sprague Dawley rats (Compound 90) or Wistar Han rats (Compound 81). The table below summarizes the results. Each compound was dosed intravenously (IV) at 1 mg/kg and orally (PO) 5 mg/kg using the respective vehicles listed below. The compounds display low (<10%) oral bioavailability (F%).

human SSTR5 = target: T1, human SSTR5 (Homo sapiens, UniProt P35346); test: Inositol phosphate accumulation assay (IP1 HTRF, antagonist mode); assay type: cell-based; settings: CHO-K1 cells co-expressing human SSTR5 with Gqi5, SST28 agonist at concentration generating 90% of full activation
T1 construct: expressed in transfected cells
Procedure, shortened: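 CHO-K1 cells stably co-expressing human SSTR5 and chimeric Gqi5 were pre-incubated with compound 15 minutes at 37° C, then stimulated with SST28 (30 nM as added, about EC90) for 90 minutes. IP1 read by HTRF (665/620 nm). % inhibition normalized to Max/Min controls; IC50 and maximal inhibition from 4-parameter fit.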

T1 sequence (P35346 whole entry): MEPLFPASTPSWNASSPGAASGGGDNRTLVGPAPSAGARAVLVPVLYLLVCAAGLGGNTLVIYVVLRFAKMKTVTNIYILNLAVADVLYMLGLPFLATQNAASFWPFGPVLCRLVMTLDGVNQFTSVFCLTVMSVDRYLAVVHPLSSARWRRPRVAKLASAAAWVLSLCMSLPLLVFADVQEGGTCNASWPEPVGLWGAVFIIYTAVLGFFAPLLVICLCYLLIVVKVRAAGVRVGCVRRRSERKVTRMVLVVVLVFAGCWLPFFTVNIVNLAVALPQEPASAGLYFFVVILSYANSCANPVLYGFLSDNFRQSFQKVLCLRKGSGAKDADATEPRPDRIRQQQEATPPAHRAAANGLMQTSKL

bioavailability ([1]; Wistar Han rats)	IC50 (human SSTR5)	bioavailability ([1]; Sprague Dawley rats)	SMILES
7%	≤ 100 nM		CCOc1cc(-c2ccc(F)cc2)c(C2CC2)cc1CN1CCC2(CC1)CN(c1ccc(S(=O)(=O)NCCOCCO)cc1)C(=O)O2 [Example 81, 4-(8-((2-cyclopropyl-5-ethoxy-4′-fluoro-[1,1-biphenyl]-4-yl)methyl)-2-oxo-1-oxa-3,8-diazaspiro[4.5]decan-3-yl)-N-(2-(2-hydroxyethoxy)ethyl)benzenesulfonamide]
	≤ 100 nM	2.6%	CCOc1cc(-c2ccc(F)cn2)c(C2CC2)cc1CN1CCC2(CC1)CN([C@H]1CC[C@](C)(C(=O)NCCOCCO)CC1)C(=O)O2 [compound 90]
